Reference: patent publication US4613622A, “Sebosuppressive preparations containing benzyl alcohol derivatives” (Henkel Kommanditgesellschaft auf Aktien, priority 1983, dated 1986)

Columns and labels:
[1] = test system: secretion of the sebaceous glands; details: known additives of U.S. Pat. No. 4,331,655 / German Patent Application 29 26 267; cited from earlier work
[2] = test system: brown skin surface lipids of the rats; experiment: Rat skin browning test for antiseborrheic (sebosuppressive) effect, visual assessment of shaved back; assay type: in vivo, male Wistar rats; details: topical; for Evaluation of sebosuppressive effects, evaluation method 1 (examiners recognizing the treated side) / Evaluation of sebosuppressive effects, evaluation method 2 (difference between righthand and lefthand side) / Evaluation of sebosuppressive effects, evaluation method 3 (difference in intensity of brown shades vs control animals): once daily for a total of 9 days over 14 days; for Sebum reduction: points difference / points of control group
From the text: The antiseborrheic effect was closely studied using the animal tests described in the following: The test animals were male Wistar rats having a body weight of 220 to 230 g. The degree of browning on the shaved back of the rats was visually assessed. Browning is produced by the brown skin surface lipids of the rats. This test is based on the observation that young male and female rats washed with surfactant solution or with a lipid solvent and also male rats systematically treated with oestrogen have only the normal light, pick-colored skin after shaving. At the same time, only comparatively very small quantities of lipids can be extracted from shaved hairs. In order to assess effectiveness, the test substances in solution in alcohol were each brushed onto half the back of 6 rats. The other half was only treated with the solvent minus active substances. Over the test period of 14 days, the test substances were applied once daily for a total of 9 days. A group of 6 rats which remained completely untreated was used for further control. At the end of the test, the animals were shaved on their back and sides and were visually assessed independently by an examination panel of 6 people under double blind conditions. The first criterion evaluated was whether the majority of examiners correctly recognized the treated side, differentiation being carried out as follows: The second criterion evaluated was the difference between the righthand side and the lefthand side, each examiner having to award 1 point per animal on the following basis: Significant differences between the untreated and treated sides in the second method of evaluation indicated the local effectiveness of a substance. The third criterion evaluated was the difference in intensity between the shades of brown using the following scale: In the third method of evaluation, the total point differences are compared between the untreated control animals and the treated and untreated sides of the test animals, significant differences between the control animals and the treated side of the test animals again indicating the effectiveness of a substance. There is generally also a distinct difference between the untreated and treated sides of the same test animals. However, this difference is not always as clear as that between the control animals and the treated sides, for which there may be various reasons, such as mechanical transfer of substance from one side to the other or solvent influence. The following scheme was used for differentiating the effects according to evaluation methods 2 and 3: The sebum reduction is calculated from the points difference by working out the quotient between the points difference ΔP and the number of points for the control group Pk, and expressing the value obtained in percent. [formula] The benzyl alcohol derivatives were applied in the manner described in concentrations of 0.5 and 1.0% in alcohol/acetone (1:1).

## CC(=O)OCC=C(C)CCC=C(C)CCC=C(C)C [3,7,11-tri:methyl-2,6,10-dodecatri:en-1-ol acetate]
[1]
  antiseborrheic effect: only a very weak antiseborrheic effect

## CCOCC=C(C)CCC=C(C)CCC=C(C)C [3,7,11-tri:methyl-2,6,10-dodecatri:en-1-ol ethyl ether]
[1]
  antiseborrheic effect: only a very weak antiseborrheic effect

## CCCCCCCCc1ccc(CO)cc1 [A, 4-octylbenzyl alcohol]
[2]; 0.5% in alcohol/acetone (1:1)
  Evaluation of sebosuppressive effects, evaluation method 1 (examiners recognizing the treated side): ++ (100%)
  Evaluation of sebosuppressive effects, evaluation method 2 (difference between righthand and lefthand side): ++ (very large (≥99.9% probability))
  Evaluation of sebosuppressive effects, evaluation method 3 (difference in intensity of brown shades vs control animals): ++ (very large (≥99.9% probability))
  Sebum reduction: 94%

## CCCCCCCCCCc1ccc(CO)cc1 [B, 4-decylbenzyl alcohol]
[2]; 0.5% in alcohol/acetone (1:1)
  Evaluation of sebosuppressive effects, evaluation method 1 (examiners recognizing the treated side): ++ (100%)
  Evaluation of sebosuppressive effects, evaluation method 2 (difference between righthand and lefthand side): ++ (very large (≥99.9% probability))
  Evaluation of sebosuppressive effects, evaluation method 3 (difference in intensity of brown shades vs control animals): ++ (very large (≥99.9% probability))
  Sebum reduction: 95%

## OCc1ccccc1 [Benzyl alcohol]
[2]; 1.0% in alcohol/acetone (1:1)
  Evaluation of sebosuppressive effects, evaluation method 1 (examiners recognizing the treated side): 0 (≥50%)
  Evaluation of sebosuppressive effects, evaluation method 2 (difference between righthand and lefthand side): 0 (minimal (<95% probability))
  Evaluation of sebosuppressive effects, evaluation method 3 (difference in intensity of brown shades vs control animals): 0 (minimal (<95% probability))
  Sebum reduction: 0%

## CCCCCCCCCCCCc1ccc(CO)cc1 [C, 4-dodecylbenzyl alcohol]
[2]; 0.5% in alcohol/acetone (1:1)
  Evaluation of sebosuppressive effects, evaluation method 1 (examiners recognizing the treated side): ++ (100%)
  Evaluation of sebosuppressive effects, evaluation method 2 (difference between righthand and lefthand side): ++ (very large (≥99.9% probability))
  Evaluation of sebosuppressive effects, evaluation method 3 (difference in intensity of brown shades vs control animals): ++ (very large (≥99.9% probability))
  Sebum reduction: 32%

## CCCCCCCCCCOCc1ccc(CO)cc1 [D, 4-decyloxymethylbenzyl alcohol]
[2]; 0.5% in alcohol/acetone (1:1)
  Evaluation of sebosuppressive effects, evaluation method 1 (examiners recognizing the treated side): ++ (100%)
  Evaluation of sebosuppressive effects, evaluation method 2 (difference between righthand and lefthand side): ++ (very large (≥99.9% probability))
  Evaluation of sebosuppressive effects, evaluation method 3 (difference in intensity of brown shades vs control animals): ++ (very large (≥99.9% probability))
  Sebum reduction: 82%

## OCc1ccc(-c2ccccc2)cc1 [E, 4-phenylbenzyl alcohol]
[2]; 0.5% in alcohol/acetone (1:1)
  Evaluation of sebosuppressive effects, evaluation method 1 (examiners recognizing the treated side): ++ (100%)
  Evaluation of sebosuppressive effects, evaluation method 2 (difference between righthand and lefthand side): ++ (very large (≥99.9% probability))
  Evaluation of sebosuppressive effects, evaluation method 3 (difference in intensity of brown shades vs control animals): ++ (very large (≥99.9% probability))
  Sebum reduction: 72%

## CC(C)(C)c1ccc(CO)cc1 [F, 4-tert.-butylbenzyl alcohol]
[2]; 1.0% in alcohol/acetone (1:1)
  Evaluation of sebosuppressive effects, evaluation method 1 (examiners recognizing the treated side): ++ (100%)
  Evaluation of sebosuppressive effects, evaluation method 2 (difference between righthand and lefthand side): ++ (very large (≥99.9% probability))
  Evaluation of sebosuppressive effects, evaluation method 3 (difference in intensity of brown shades vs control animals): ++ (very large (≥99.9% probability))
  Sebum reduction: 56%
